Results published in the NIST ThermoML archive (doi:10.1016/j.fluid.2019.06.004).
± gives the expanded uncertainty stated by the source.

Key:
[1] = Molar enthalpy of transition or fusion; conditions: DSC

Normal melting temperature (Crystal): 188.96 ± 2.2 °C
Triple point temperature (Crystal 2, DSC): 421.11 ± 1.2 K
Molar enthalpy of transition or fusion ([1]; Crystal 2): 0.363 ± 0.043 kcal/mol
Molar enthalpy of transition or fusion ([1]; Crystal): 6.09 ± 0.502 kcal/mol
SMILES: NC(=O)c1cnccn1 [pyrazinecarboxamide]
